{
  "source": "patent US7148250B2",
  "about": "“Indoles as NAALADase inhibitors” (Guilford Pharmaceuticals Inc., priority 2001, dated 2006)",
  "key": {"STZ-diabetic rats [1]": {"system": "STZ-diabetic rats", "test": "Neuropathic pain in STZ model (thermal withdrawal latency)", "format": "in vivo, rat", "conditions": "10 mg/kg i.p. daily, treatment from 45 days post STZ", "description": "Male Sprague-Dawley rats (200–225 g) were rendered diabetic by intravenous administration of streptozotocin (“STZ”, 70 mg/kg in phosphate buffered saline). Diabetic animals were divided into five groups: one group receiving Compound A (10 mg/kg or 1 mg/kg), Compound D (10 mg/kg or 1 mg/kg) or vehicle. Another group of animals (non-STZ treated) served as non-diabetic controls. Drug/vehicle treatment was started in diabetic animals 45 days post-STZ administration. STZ-induced diabetic rats were tested for sensitivity to a heat source as soon as blood glucose levels rose to 320 mg/dl or above (30 days post STZ). The rats were then acclimated to a Hargreaves apparatus and thermal nociception was monitored using an infrared heat source directed into the dorsal surface of the hindpaw, and the time taken for the animal to remove its paw noted to the nearest 0.1 seconds (see Hargreaves et al., supra, for detailed experimental method). The intensity of the beam source was adjusted such that the mean latency for control animals (non-STZ treated) was approximately 10 seconds. Each animal was tested 8 times and the mean difference score (between mean non-diabetic control latency and mean diabetic latency) are graphically presented in FIGS. 7A and 7B."}, "[2]": {"system": "Brown Norway rats with unilateral elevation of intraocular pressure", "test": "Experimental rat glaucoma (IOP elevation), optic nerve fiber counting", "format": "in vivo", "conditions": "8 week group, 10 mg/kg i.p. daily", "description": "(§1) All experiments complied with the Association for Research in Vision and Ophthalmology Statement for the Use of Animals in Ophthalmic and Vision Research. 82 male Brown Norway rats (Rattus norvegicus), each weighing approximately 250 gm, were treated using procedures approved by the Animal Care Committee of the Johns Hopkins University School of Medicine. The rats were housed with a 12 hour light/12 hour dark cycle and fed ad libitum.\nEXPERIMENTAL GLAUCOMA: Unilateral elevation of intraocular pressure (“IOP”) was produced in 56 rats by microinjection of hypertonic saline into episcleral veins, following procedures described in Morrison, J. et al., IOVS (March 1998) 39:526–531. Beginning on the day of IOP elevation, the rats were treated daily with intraperitoneal injections of either a vehicle (23 rats with 50 mM HEPES-buffered saline) or a NAALADase inhibitor (11 rats with 10 mg/kg of Compound A and 22 rats with 10 mg/kg of Compound B). 11 saline treated rats, 11 Compound A treated rats and 11 Compound B treated rats were sacrificed at 8 weeks, and the remaining rats at 12 weeks, after initial IOP elevation.\n(§2) OPTIC NERVE COUNTING: The rats were sacrificed by exsanguination under deep pentobarbital anesthesia. They were perfused through the heart with 2% paraformaldehyde/2% glutaraldehyde in 0.1 M phosphate buffer, pH 7.2, and the eyes with attached optic nerves were removed. A cross-section of the optic nerve from both experimental (glaucoma or transection) and control eyes was removed 1.5 mm posterior to the globe, 1 mm in thickness, and post-fixed in 2% osmium tetroxide in buffer. These were processed into epoxy resin, sectioned at 1 micron and stained with toluidine blue.\n(§3) The area of the optic nerve cross-section was measured by outlining its outer border at 10× magnification on an image analysis system (Universal Imaging Corp., Westchester, Pa.) with Synsys digital camera and Metamorph software. Three area measurements were taken and the mean value was determined. To measure the density and fiber diameter distributions, images were captured with a 100× phase contrast objective from 10 different areas of each nerve. These were edited to eliminate non-neural objects and the size of each axon internal to the myelin sheath (its minimum diameter) and the density of axons/square mm were calculated for each image and nerve. The mean density was multiplied by total nerve area to yield fiber number for each nerve. The total fiber number in glaucoma or transection nerves was compared to the normal, fellow eye of each rat to yield a percent loss value. The number of axons counted among the 10 images was an approximately 20% sample of the 80–90,000 axons in normal rat nerves. The person measuring axon number was masked to the protocol conducted on the nerves."}, "STZ-diabetic rats [3]": {"system": "STZ-diabetic rats", "test": "Diabetic neuropathy in STZ model (nerve conduction velocity)", "format": "in vivo, rat", "conditions": "10 mg/kg daily, 4, 8 and 12 weeks", "description": "Motor and sensory nerve conduction velocity was also measured in STZ-diabetic animals after 4, 8 and 12 weeks of treatment (see De Koning et al., supra, for a description of the experimental method). Briefly, stimulating needle electrodes were inserted close to the sciatic and tibial nerves with recording electrodes being placed subcutaneously over the distal foot muscles, in anesthetized rats."}, "transgenic G1H mice": {"system": "transgenic G1H mice", "test": "Effect on onset of ALS in transgenic FALS mice", "format": "in vivo, mouse", "description": "The effect of NAALADase inhibitors on the onset of ALS was tested using the transgenic mice model of familial Amyotrophic Lateral Sclerosis (FALS), which is detailed in Gurney, M., Annals of Neurology (1996) 39:147–157, and otherwise well known in the art. One month old transgenic G1H mice were treated with daily intraperitoneal injections of a vehicle (50 mM HEPES-buffered saline) or a NAALADase inhibitor (50 mg/kg Compound A). Clinical symptoms of the mice were monitored daily. The onset of clinical disease was scored by examining each mouse for its shaking of limbs when suspended in the air by its tail, cross spread of spinal reflexes, hindlimb paralysis, body weight and wheel running activity."}, "[4]": {"system": "Brown Norway rats with unilateral optic nerve transection", "test": "Optic nerve transection, optic nerve fiber counting", "format": "in vivo, Rattus norvegicus", "conditions": "for FIBER NUMBER ± SEM / PERCENT DIFFERENCE ± SEM in fiber number between transected and normal eye: 10 mg/kg i.p. daily", "description": "as §1\nOPTIC NERVE TRANSECTION: The optic nerve was transected unilaterally in 26 rats under intraperitoneal pentobarbital anesthesia. The conjunctiva was opened with scissors and the optic nerve exposed by traction on extraocular muscles. The transection was performed with microscissors 5 mm posterior to the globe, with specific attention to avoidance of injury to major ocular blood vessels. Immediately after transection, the retina was examined ophthalmoscopically to assure that the retinal arterial blood supply was not disrupted. The conjunctiva was closed with absorbable suture and the eye dressed with antibiotic ointment. Beginning on the day of transection, the rats were treated daily with intraperitoneal injections of either a vehicle (9 rats with 50 mM HEPES-buffered saline) or a NAALADase inhibitor (8 rats with 10 mg/kg of Compound A and 9 rats with 10 mg/kg of Compound B). 5 saline treated rats, 3 Compound A treated rats and 4 Compound B treated rats were sacrificed at 2 weeks, and the remaining rats at 4 weeks, after transection.\nas §2, §3"}, "BB/W diabetic rats": {"system": "BB/W diabetic rats", "test": "Progression of neuropathic pain and nerve conduction deficits in BB/W model", "format": "in vivo, rat", "source_text": "Male BB/W rats (BRI, Mass) spontaneously develop a cell mediated autoimmune destruction of pancreatic B cells, resulting in onset of insulin-dependent (Type I) diabetes (Guberski 1994). […] This renders them valuable for experimental trials of new compounds for future treatments of this major disorder. In the present study, Compound D and Compound A were examined for their ability to alter the progression of diabetic neuropathy. The rats received daily injection of Compound D or Compound A (10 mg/kg i.p.) or vehicle, starting at the onset of diabetes (hyperglycemia) and up to 6 months thereafter. Another group of non-diabetic rats also receiving vehicle were tested. All animals were continuously monitored for body weight, urine volume, blood sugar and glycated haemoglobin. In the first month of the study, all animals were tested for thermal nociception in a Hargreaves apparatus, weekly. After the first month this was done biweekly and then monthly. The testing consists of directing an infrared heat source onto the dorsal surface of the rat hindpaw and noting the time taken for the animal to remove its paw (see Hargreaves et al., supra, for a description of the experimental method). Each animal was tested 8 times and the mean withdrawal latency noted.\nNerve conduction velocity was also measured every two weeks through the first eight weeks of treatment and every month thereafter through to the six months of treatment (see De Koning et al., Peptides, Vol. 8, No. 3, pp. 415–22 (1987) for a description of the experimental method). […] This was apparent starting at 8 weeks of treatment and persisted to a similar degree through to the six month termination point of the study."}, "[5]": {"system": "chronic constrictive injury-induced rats", "test": "Neuropathic pain in chronic constriction injury (CCI) model", "format": "in vivo, rat", "conditions": "50 mg/kg i.p. daily from 10 days post surgery, significant from 11 days of treatment", "description": "Sciatic nerve ligation, consisting of 4 ligatures tied loosely around the sciatic nerve at 1 mm intervals proximal to the nerve trifurcation, was performed on rats. […] The rats were habituated to a Hargreaves apparatus. An infrared heat source was directed onto the dorsal surface of each rat's hindpaws and the time taken for the rat to withdraw its paws was noted. The difference in scores between the latency of the response for the paw on the operated side versus the paw on the unoperated control side was determined.\nThe rats received either Compound C (50 mg/kg i.p. daily) or a vehicle starting 10 days post surgery. […] Normal (unoperated) rats had approximately equal latencies for both paws. This effect was significant starting at 11 days of drug treatment and persisted through to the end of the study (for 21 days of daily dosing)."}, "ischemic cell cultures": {"system": "ischemic cell cultures", "test": "Effect of NAALADase inhibition on TGF-β in in vitro ischemia model", "format": "cell-based", "description": "A NAALADase inhibitor, Compound C, was added to ischemia cell cultures to determine its effect on TGF-β levels during stroke.\nTGF-β neutralizing antibodies were then added to the ischemic cell cultures."}, "[6]": {"system": "rats subjected to middle cerebral artery occlusion", "test": "Effect of NAALADase inhibition on TGF-β in in vivo ischemia model (MCAO)", "parameters": "species or system rat", "source_text": "The effect of TGF-β neutralizing antibodies on the neuroprotective effect of Compound C was also studied in rats following MCAO."}, "NAALADase": {"system": "NAALADase", "conditions": "read-out: Km of NAALADase for NAAG; cited from earlier work"}, "[7]": {"conditions": "2 weeks survival after transection"}, "[8]": {"conditions": "4 weeks survival after transection"}},
  "note": "Where a SMILES comes first, the peptide text is derived from it.",
  "data": [
    {"smiles": "O=C(O)CCC(CP(=O)(O)Cc1c(F)c(F)c(F)c(F)c1F)C(=O)O", "note": "(centres unmarked) [Compound A]", "values": [
      {"measurement": "hyperalgesic response (withdrawal latency difference score)", "setting": "STZ-diabetic rats [1]", "result": "completely reversed"},
      {"measurement": "FIBER NUMBER ± SEM", "setting": "[2]", "result": "79156 ± 2436"},
      {"measurement": "PERCENT DIFFERENCE ± SEM in fiber number between glaucoma and normal eye", "setting": "[2]; positive = fewer fibers in glaucoma eye", "result": "−1.82 ± 2.92", "unit": "%"},
      {"measurement": "motor and sensory nerve conduction velocities", "setting": "STZ-diabetic rats [3]", "result": "tended to improve (increase)"},
      {"measurement": "DIFFERENCE in disease onset, treated versus vehicle", "setting": "transgenic G1H mice; Study 1", "result": 32},
      {"measurement": "DISEASE ONSET FOR COMPOUND A TREATED MICE", "setting": "transgenic G1H mice; Study 1, 50 mg/kg i.p. daily", "result": 221, "unit": "days"},
      {"measurement": "DIFFERENCE in disease onset, treated versus vehicle", "setting": "transgenic G1H mice; Study 2", "result": 25},
      {"measurement": "DISEASE ONSET FOR COMPOUND A TREATED MICE", "setting": "transgenic G1H mice; Study 2, 50 mg/kg i.p. daily", "result": 166, "unit": "days"},
      {"measurement": "remaining axons relative to saline-treated rats", "setting": "[4]; 2 weeks after transection", "result": 3, "unit": "times"},
      {"measurement": "FIBER NUMBER ± SEM", "setting": "[4]; [7]", "result": "26,426 ± 13,293"},
      {"measurement": "PERCENT DIFFERENCE ± SEM in fiber number between transected and normal eye", "setting": "[4]; [7]", "result": "65.3 ± 17.8", "unit": "%"},
      {"measurement": "FIBER NUMBER ± SEM", "setting": "[4]; [8]", "result": "13,599 ± 3,519"},
      {"measurement": "PERCENT DIFFERENCE ± SEM in fiber number between transected and normal eye", "setting": "[4]; [8]", "result": "82.4 ± 4.0", "unit": "%"},
      {"measurement": "nerve conduction velocity deficits versus diabetic vehicle controls", "setting": "BB/W diabetic rats; 10 mg/kg daily, from 8 weeks to six months", "result": "significantly less severe nerve conduction deficits"},
      {"measurement": "withdrawal latency versus diabetic vehicle-treated rats", "setting": "BB/W diabetic rats; 10 mg/kg i.p. daily, from 4 weeks through six months of treatment", "result": "longer withdrawal latencies"}
    ]},
    {"smiles": "O=C(O)CCC(CP(=O)(O)O)C(=O)O", "note": "(centres unmarked) [Compound C, 2-(phosphonomethyl)-pentanedioic acid]", "values": [
      {"measurement": "difference scores between the two paws (withdrawal latency)", "setting": "[5]", "result": "dramatically normalized"},
      {"measurement": "TGF-β1 concentrations in ischemic cell cultures", "setting": "ischemic cell cultures; FIG. 1", "result": "increased concentrations"},
      {"measurement": "TGF-β2 concentrations in ischemic cell cultures", "setting": "ischemic cell cultures; FIG. 2", "result": "increased concentrations"},
      {"measurement": "neuroprotective effect after addition of TGF-β neutralizing antibodies", "setting": "ischemic cell cultures; in vitro ischemia model, FIG. 3", "result": "blocked"},
      {"measurement": "neuroprotective effect after addition of FGF antibody", "setting": "ischemic cell cultures; in vitro ischemia model, FIG. 4", "result": "did not block"},
      {"measurement": "neuroprotective effect in vivo with TGF-β neutralizing antibodies", "setting": "[6]; FIG. 5", "result": "significantly attenuated"},
      {"measurement": "TGF-β1 levels during occlusion and reperfusion", "setting": "[6]; microdialysis, FIG. 6", "result": "significant rise"}
    ]},
    {"smiles": "CC(=O)N[C@@H](CC(=O)O)C(=O)N[C@@H](CCC(=O)O)C(=O)O", "note": "[NAAG, N-acetyl-aspartyl-glutamate] (Ac-Asp-Glu-OH)", "values": [
      {"measurement": "Km", "setting": "NAALADase", "result": 0.54, "unit": "µM"}
    ]}
  ]
}
